Measurements: ChEMBL document CHEMBL1136480, “Successful shape-based virtual screening: the discovery of a potent inhibitor of the type I TGFbeta receptor kinase (TbetaRI)” (Bioorg Med Chem Lett, 2003)

System: HepG2
Experiment: Inhibition of TGF-beta-induced expression of PAI-luciferase reporter in HepG2 cells
Format: functional, cell-based
Conditions: Homo sapiens

- IC50: 60 nM
Structure (SMILES): c1ccc(-c2n[nH]cc2-c2ccnc3ccccc23)nc1
